Measurements: PubChem BioAssay (NCI)
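Five concentrations, 48 hours, 96-well plates. At the TGI there is no net growth.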

Assays:
Assay in all cases: growth of human tumour cells (NCI), 48 h
K-562 leukemia = tested on: K-562 leukemia
A498 renal = tested on: A498 renal
SK-MEL-28 melanoma = tested on: SK-MEL-28 melanoma
HOP-92 NSCLC = tested on: HOP-92 NSCLC
MDA-N = tested on: MDA-N
SW-620 colon = tested on: SW-620 colon
NCI/ADR-RES ovarian = tested on: NCI/ADR-RES ovarian
MDA-MB-231 breast = tested on: MDA-MB-231 breast
MCF7 breast = tested on: MCF7 breast
U251 CNS = tested on: U251 CNS
CAKI-1 renal = tested on: CAKI-1 renal
T-47D breast = tested on: T-47D breast
HCT-116 colon = tested on: HCT-116 colon
HCC-2998 colon = tested on: HCC-2998 colon
IGROV1 ovarian = tested on: IGROV1 ovarian
SF-539 CNS = tested on: SF-539 CNS
SK-MEL-2 melanoma = tested on: SK-MEL-2 melanoma
NCI-H522 lung = tested on: NCI-H522 lung
MDA-MB-435 = tested on: MDA-MB-435
PC-3 prostate = tested on: PC-3 prostate
OVCAR-4 ovarian = tested on: OVCAR-4 ovarian
HS 578T breast = tested on: HS 578T breast
RXF 393 renal = tested on: RXF 393 renal
NCI-H226 lung = tested on: NCI-H226 lung
HL-60(TB) leukemia = tested on: HL-60(TB) leukemia
HT29 colon = tested on: HT29 colon
SF-295 CNS = tested on: SF-295 CNS
OVCAR-5 ovarian = tested on: OVCAR-5 ovarian
SNB-19 CNS = tested on: SNB-19 CNS
CCRF-CEM leukemia = tested on: CCRF-CEM leukemia
SNB-75 CNS = tested on: SNB-75 CNS
MALME-3M melanoma = tested on: MALME-3M melanoma
EKVX NSCLC = tested on: EKVX NSCLC
UACC-62 melanoma = tested on: UACC-62 melanoma
SR leukemia = tested on: SR leukemia
SK-MEL-5 melanoma = tested on: SK-MEL-5 melanoma
DU-145 prostate = tested on: DU-145 prostate
MOLT-4 leukemia = tested on: MOLT-4 leukemia
SN12C renal = tested on: SN12C renal
A549 NSCLC = tested on: A549 NSCLC
HOP-62 NSCLC = tested on: HOP-62 NSCLC
SF-268 CNS = tested on: SF-268 CNS
UACC-257 melanoma = tested on: UACC-257 melanoma
HCT-15 colon = tested on: HCT-15 colon
SK-OV-3 ovarian = tested on: SK-OV-3 ovarian
KM12 colon = tested on: KM12 colon
RPMI-8226 leukemia = tested on: RPMI-8226 leukemia
786-0 renal = tested on: 786-0 renal
COLO 205 colon = tested on: COLO 205 colon
ACHN renal = tested on: ACHN renal
TK-10 renal = tested on: TK-10 renal
NCI-H460 lung = tested on: NCI-H460 lung
M14 melanoma = tested on: M14 melanoma
UO-31 renal = tested on: UO-31 renal
OVCAR-8 ovarian = tested on: OVCAR-8 ovarian
NCI-H23 lung = tested on: NCI-H23 lung
LOX IMVI melanoma = tested on: LOX IMVI melanoma
OVCAR-3 ovarian = tested on: OVCAR-3 ovarian
BT-549 breast = tested on: BT-549 breast

C[C@]12C[C@@H](OC(=O)[C@]1(C)O)[C@@H]([C@]1(O)CC[C@H]3[C@@H]4C[C@H]5O[C@]56C[C@H]5O[C@H]5C(=O)[C@]6(C)[C@H]4CC[C@@]31C)C2
TGI (K-562 leukemia): > 50 µM
TGI (A498 renal): > 50 µM
TGI (SK-MEL-28 melanoma): > 50 µM
TGI (HOP-92 NSCLC): > 50 µM
TGI (MDA-N): > 50 µM
TGI (SW-620 colon): > 50 µM
TGI (NCI/ADR-RES ovarian): > 50 µM
TGI (MDA-MB-231 breast): > 50 µM
TGI (MCF7 breast): > 50 µM
TGI (U251 CNS): > 50 µM
TGI (CAKI-1 renal): > 50 µM
TGI (T-47D breast): > 50 µM
TGI (HCT-116 colon): > 50 µM
TGI (HCC-2998 colon): > 50 µM
TGI (IGROV1 ovarian): > 50 µM
TGI (SF-539 CNS): > 50 µM
TGI (SK-MEL-2 melanoma): > 50 µM
TGI (NCI-H522 lung): > 50 µM
TGI (MDA-MB-435): > 50 µM
TGI (PC-3 prostate): > 50 µM
TGI (OVCAR-4 ovarian): > 50 µM
TGI (HS 578T breast): > 50 µM
TGI (RXF 393 renal): > 50 µM
TGI (NCI-H226 lung): > 50 µM
TGI (HL-60(TB) leukemia): > 50 µM
TGI (HT29 colon): > 50 µM
TGI (SF-295 CNS): > 50 µM
TGI (OVCAR-5 ovarian): > 50 µM
TGI (SNB-19 CNS): > 50 µM
TGI (CCRF-CEM leukemia): > 50 µM
TGI (SNB-75 CNS): > 50 µM
TGI (MALME-3M melanoma): > 5 µM
TGI (EKVX NSCLC): > 50 µM
TGI (UACC-62 melanoma): > 50 µM
TGI (SR leukemia): > 50 µM
TGI (SK-MEL-5 melanoma): > 50 µM
TGI (DU-145 prostate): > 50 µM
TGI (MOLT-4 leukemia): > 50 µM
TGI (SN12C renal): > 50 µM
TGI (A549 NSCLC): > 50 µM
TGI (HOP-62 NSCLC): > 50 µM
TGI (SF-268 CNS): > 50 µM
TGI (UACC-257 melanoma): > 50 µM
TGI (HCT-15 colon): > 50 µM
TGI (SK-OV-3 ovarian): > 50 µM
TGI (KM12 colon): > 50 µM
TGI (RPMI-8226 leukemia): > 50 µM
TGI (786-0 renal): > 50 µM
TGI (COLO 205 colon): > 50 µM
TGI (ACHN renal): > 50 µM
TGI (TK-10 renal): > 50 µM
TGI (NCI-H460 lung): > 50 µM
TGI (M14 melanoma): > 50 µM
TGI (UO-31 renal): > 50 µM
TGI (OVCAR-8 ovarian): > 50 µM
TGI (NCI-H23 lung): > 50 µM

NC(=O)C(=CNC(=S)Nc1ccccc1)C(N)=O
TGI (LOX IMVI melanoma): > 100 µM
TGI (K-562 leukemia): > 100 µM
TGI (A498 renal): > 100 µM
TGI (SK-MEL-28 melanoma): > 100 µM
TGI (HOP-92 NSCLC): > 100 µM
TGI (MDA-N): > 100 µM
TGI (SW-620 colon): > 100 µM
TGI (NCI/ADR-RES ovarian): > 100 µM
TGI (MDA-MB-231 breast): > 100 µM
TGI (MCF7 breast): > 100 µM
TGI (U251 CNS): > 100 µM
TGI (OVCAR-3 ovarian): > 100 µM
TGI (CAKI-1 renal): > 100 µM
TGI (T-47D breast): > 100 µM
TGI (HCT-116 colon): > 100 µM
TGI (HCC-2998 colon): > 100 µM
TGI (IGROV1 ovarian): > 100 µM
TGI (SF-539 CNS): > 100 µM
TGI (SK-MEL-2 melanoma): > 100 µM
TGI (NCI-H522 lung): > 100 µM
TGI (MDA-MB-435): > 100 µM
TGI (PC-3 prostate): > 100 µM
TGI (OVCAR-4 ovarian): > 100 µM
TGI (HS 578T breast): > 100 µM
TGI (RXF 393 renal): > 100 µM
TGI (NCI-H226 lung): > 100 µM
TGI (HL-60(TB) leukemia): > 100 µM
TGI (HT29 colon): > 100 µM
TGI (SF-295 CNS): > 100 µM
TGI (OVCAR-5 ovarian): > 100 µM
TGI (SNB-19 CNS): > 100 µM
TGI (CCRF-CEM leukemia): > 100 µM
TGI (SNB-75 CNS): > 100 µM
TGI (MALME-3M melanoma): > 100 µM
TGI (EKVX NSCLC): > 100 µM
TGI (UACC-62 melanoma): > 100 µM
TGI (SR leukemia): > 100 µM
TGI (SK-MEL-5 melanoma): > 100 µM
TGI (DU-145 prostate): > 100 µM
TGI (MOLT-4 leukemia): > 100 µM
TGI (SN12C renal): > 100 µM
TGI (A549 NSCLC): > 100 µM
TGI (HOP-62 NSCLC): > 100 µM
TGI (SF-268 CNS): > 100 µM
TGI (UACC-257 melanoma): > 100 µM
TGI (HCT-15 colon): > 100 µM
TGI (SK-OV-3 ovarian): > 100 µM
TGI (KM12 colon): > 100 µM
TGI (RPMI-8226 leukemia): > 100 µM
TGI (786-0 renal): > 100 µM
TGI (COLO 205 colon): > 100 µM
TGI (ACHN renal): > 100 µM
TGI (NCI-H460 lung): > 100 µM
TGI (M14 melanoma): > 100 µM
TGI (OVCAR-8 ovarian): > 100 µM
TGI (NCI-H23 lung): > 100 µM

O=c1[nH]c(=S)nc2nc3c4ccc[nH]c4c4ccccc4c3nc12
TGI (A498 renal): > 100 µM
TGI (BT-549 breast): > 100 µM
TGI (SK-MEL-28 melanoma): > 100 µM
TGI (HOP-92 NSCLC): > 100 µM
TGI (MDA-N): > 100 µM
TGI (SW-620 colon): > 100 µM
TGI (MCF7 breast): > 100 µM
TGI (U251 CNS): > 100 µM
TGI (OVCAR-3 ovarian): > 100 µM
TGI (CAKI-1 renal): > 100 µM
TGI (HCT-116 colon): > 100 µM
TGI (HCC-2998 colon): > 100 µM
TGI (IGROV1 ovarian): > 100 µM
TGI (SF-539 CNS): > 100 µM
TGI (NCI-H522 lung): > 100 µM
TGI (MDA-MB-435): > 100 µM
TGI (PC-3 prostate): > 100 µM
TGI (OVCAR-4 ovarian): > 100 µM
TGI (HS 578T breast): > 100 µM
TGI (RXF 393 renal): > 100 µM
TGI (HL-60(TB) leukemia): 66.1 µM
TGI (HT29 colon): > 100 µM
TGI (SF-295 CNS): > 100 µM
TGI (OVCAR-5 ovarian): > 100 µM
TGI (SNB-19 CNS): > 100 µM
TGI (CCRF-CEM leukemia): > 100 µM
TGI (SNB-75 CNS): > 100 µM
TGI (MALME-3M melanoma): > 100 µM
TGI (EKVX NSCLC): > 100 µM
TGI (UACC-62 melanoma): > 100 µM
TGI (SR leukemia): > 100 µM
TGI (SK-MEL-5 melanoma): > 100 µM
TGI (DU-145 prostate): > 100 µM
TGI (MOLT-4 leukemia): > 100 µM
TGI (SN12C renal): > 100 µM
TGI (A549 NSCLC): > 100 µM
TGI (HOP-62 NSCLC): > 100 µM
TGI (SF-268 CNS): > 100 µM
TGI (UACC-257 melanoma): > 100 µM
TGI (HCT-15 colon): > 100 µM
TGI (SK-OV-3 ovarian): > 100 µM
TGI (KM12 colon): > 100 µM
TGI (RPMI-8226 leukemia): > 100 µM
TGI (786-0 renal): > 100 µM
TGI (COLO 205 colon): > 100 µM
TGI (ACHN renal): > 100 µM
TGI (TK-10 renal): > 100 µM
TGI (NCI-H460 lung): > 100 µM
TGI (M14 melanoma): > 100 µM
TGI (UO-31 renal): > 100 µM
TGI (OVCAR-8 ovarian): > 100 µM
TGI (NCI-H23 lung): > 100 µM
